For two compounds, IC50 results are on record in publication PMC5764323, “The etomidate analog ET-26 HCl retains superior myocardial performance: Comparisons with etomidate in vivo and in vitro” (PLoS ONE, 2018).

Where a name gives a salt, the structure may show the parent alone.

In this assay the target is T1, human ether-a-go-go-related gene (hERG) channel (Homo sapiens, UniProt Q12809).
T1 construct: gene KCNH2
Description: whole-cell patch clamp, hERG tail current in HEK-293 cells. It is filed as cell-based. The source says: whole-cell patch clamp, hERG tail current in HEK-293 cells on human ether-a-go-go-related gene (hERG) channel | etomidate inhibited the tail current of the hERG in a concentration-dependent manner | The etomidate analogue, ET-26 HCl, inhibited the hERG current in a similar concentration-dependent manner

T1 sequence (Q12809 whole entry): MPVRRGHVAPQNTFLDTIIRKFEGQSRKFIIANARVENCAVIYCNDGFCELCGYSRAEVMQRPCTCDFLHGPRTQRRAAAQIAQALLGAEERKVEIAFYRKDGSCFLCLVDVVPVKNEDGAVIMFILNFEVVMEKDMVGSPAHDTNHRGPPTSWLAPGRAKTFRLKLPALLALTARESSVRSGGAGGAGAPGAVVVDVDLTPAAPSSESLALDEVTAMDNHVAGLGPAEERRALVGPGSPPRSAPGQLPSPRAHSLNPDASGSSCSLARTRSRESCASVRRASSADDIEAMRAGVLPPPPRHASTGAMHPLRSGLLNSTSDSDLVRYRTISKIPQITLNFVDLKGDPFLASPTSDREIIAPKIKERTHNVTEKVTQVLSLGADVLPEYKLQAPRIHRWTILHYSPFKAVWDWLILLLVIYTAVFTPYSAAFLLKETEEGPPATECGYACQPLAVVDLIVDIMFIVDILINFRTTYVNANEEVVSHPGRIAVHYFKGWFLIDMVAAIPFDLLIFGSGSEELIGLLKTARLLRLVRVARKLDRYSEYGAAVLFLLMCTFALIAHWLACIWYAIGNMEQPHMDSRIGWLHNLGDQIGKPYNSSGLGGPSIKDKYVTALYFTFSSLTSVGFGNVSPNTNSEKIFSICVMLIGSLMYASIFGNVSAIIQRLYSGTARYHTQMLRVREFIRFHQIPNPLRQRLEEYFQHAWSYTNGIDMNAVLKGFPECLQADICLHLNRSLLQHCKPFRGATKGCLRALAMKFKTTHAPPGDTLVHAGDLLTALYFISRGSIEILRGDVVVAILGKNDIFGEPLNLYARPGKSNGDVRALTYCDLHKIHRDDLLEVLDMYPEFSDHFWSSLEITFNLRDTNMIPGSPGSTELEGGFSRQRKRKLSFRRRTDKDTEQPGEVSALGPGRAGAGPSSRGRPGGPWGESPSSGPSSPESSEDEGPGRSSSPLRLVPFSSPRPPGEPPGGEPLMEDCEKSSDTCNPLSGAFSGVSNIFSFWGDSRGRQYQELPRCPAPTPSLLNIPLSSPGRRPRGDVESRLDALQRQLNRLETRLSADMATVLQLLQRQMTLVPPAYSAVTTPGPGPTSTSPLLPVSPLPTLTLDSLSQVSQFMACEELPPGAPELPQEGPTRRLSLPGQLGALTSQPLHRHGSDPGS

For the compound `COCCOC(=O)c1cncn1[C@H](C)c1ccccc1` [ET-26 HCl, (R)-2-methoxyethyl1-(1-phenylethyl)-1H-imidazole-5-carboxylate hydrochloride], the midpoint of inhibition, the IC50, lay at 743 µM. The same measure for `CCOC(=O)c1cncn1[C@H](C)c1ccccc1` [etomidate]: 264 µM.
